Series [1] has as its system corneal epithelial wound after PRK surgery. As to the kind of experiment: PRK study: size of epithelial defect by slit lamp exam (wound healing). In kind it is in vivo, human. The text has this:
Adverse events and serious adverse events included an assessment of both systemic and ocular assessments. Systemic safety assessments included regular assessments of height and weight, vital signs, reporting medication errors including misuse/abuse, pregnancy reporting and early phase safety monitoring. The misuse/abuse, pregnancy reporting and early phase safety monitoring were not assessed for the study. Ocular safety assessments included the following: • Best-corrected visual acuity (BCVA) and uncorrected visual acuity (UCVA): Was measured at each visit using an ETDRS visual acuity chart at 4 meters (13 feet) or 1 meter (for patients that cannot read the 4 meter chart). The BCVA scoring was done based on the number of correctly read letters plus 30. If visual acuity was so poor that the patient could not read any of the largest letters at 1 meter, count fingers and hand movement vision and light perception was tested. • Intraocular Pressure (TOP): IOP measurements were conducted with applanation tonometry or Tonopen. • Dilated fundus exam: The dilated fundus examination included ophthalmoscopic assessments of the vitreous, retina/macula/choroid, and optic nerve. Evaluations for retinal tear/detachment, retinal hemorrhage, vitreous hemorrhage density, vitreous haze grading and abnormal findings were done and scored according to grading criteria. • Ocular hyperemia: Conjunctival redness of the bulbar conjunctiva in each eye at the slit lamp according to the McMonnies redness scale was graded. […] By adjusting the calibrated slit beam width and height, the maximum horizontal (wound width) and vertical dimensions (wound height) of the surgical epithelial wound was estimated. The evaluation was performed until wound closure and report of wound size as 0 horizontal and 0 vertical dimensions. • Slit-lamp biomicroscopy: Ocular signs (eyelids/conjunctiva, cornea, lens, and iris/anterior chamber) was assessed in both eyes by slit lamp biomicroscopy according to the grading criteria. • Blink rate: A blink was defined as a bilateral paroxysmal closure of the eyelids (duration<1 second) in the absence of a provoking external stimulus. Each blink assessment lasted for 2 min (or as close to 2 minutes as possible with minimum time 1 minute) and the obtained blink rate was averaged to calculate blink rate in blinks/min. • Tear production (Schirmer's test without anesthesia): The test was performed without anesthetic in both eyes simultaneously. Tear secretion was measured in millimeters of the length of strip wetted by tears. […] The strip was wetted with 1 drop of sterile saline and flicked to remove excess saline. The patient blinked several times to ensure dispersion of the dye throughout the tear film prior to grading on a scale of 0-3 (0=Normal, No staining; 1=Mild, Superficial stippling micropunctate staining; 2=Moderate, Macropunctate staining with some coalescent areas and 3=Severe, Numerous coalescent macropunctate areas and/or patches) for each of 5 zones (central plus 4 quadrants).
Size of epithelial defect by slit lamp exam: In order to assess the rate of wound healing after administration of compound I, the size of the epithelial defect in both compound I and Vehicle treated populations was measured. The elliptical area of epithelial wound size was calculated as follows: […], from the width and height of the epithelial defect measured at the slit lamp. The difference in epithelial wound area between compound I and Vehicle was not noticeably different at any time point except at Day 2 post-PRK surgery (all p-values for the difference in area was >0.35). On Day 2 (24 hours post-operative), the difference in average epithelial defect area between patients treated with compound I vs. Vehicle was 11.23 mm2 (p value=0.034). This difference was not clinically significant in the immediate post-operative period. […]

For series [2], the system named is postoperative ocular pain in patients undergoing photorefractive keratectomy (PRK) surgery. As to the kind of experiment: PRK study: visual analog scale (VAS) pain assessment. The series is classed as in vivo, human. The procedure: The study was a proof of concept, double-masked, randomized, vehicle-controlled study of compound I administered as eye drops in addition to standard of care treatment in patients after PRK surgery. PRK surgery was performed as an outpatient procedure under topical anesthesia with removal of the corneal epithelium to expose the stroma for the laser ablation. Compound I dosing was as single eye drop of 2.5% (25 mg/ml, 0.925 mg/drop), administered four times daily (every six hours) in one eye from immediate post-op (time 0) to last dose at 72 hours.
The study consisted of 2 treatment periods using a crossover design. Patients underwent PRK surgery on 2 separate occasions (periods), one eye at a time. Patients were randomized to receive either compound 1 or vehicle following procedure 1 and the alternate following procedure 2.
Forty patients were randomized in a 1:1 ratio to two sequences: compound I during period 1, followed by vehicle in period 2, or vehicle during period 1 followed by compound I during period 2. Each patient was administered one drop four times daily for 72 hours following PRK surgery on their study eye (Day 1, Periods 1 and 2). The initial study eye was the non-dominant eye as established at screening and in agreement of the patient and the investigator. The patients returned for follow-up visits on Days 2, 3, 4 and 8 of Period 1 after surgery in the first eye, with optional daily visits to follow the patient until wound healing was complete. The second eye surgery was not performed if any complications were noticed.
Patient subjective experience of pain was recorded using VAS, a numeric assessment of pain between 0 and 100, with 0 representing no pain, and 100 representing worst imaginable pain. […] Since it was important clinically to both decrease the maximum pain as well as the overall pain that the patient experiences during the immediate postoperative period, the two periods of 6 hours and up to 12 hours postoperatively, were evaluated as primary endpoints. All evaluable VAS data was collected using an ePRO, which was an electronic device (cell phone with software application), on which patients marked their pain levels at the appropriate time points.
Rescue oral analgesics: It is not ethical to refuse pain control medication to patients postoperatively as part of a clinical trial. […] Because the use of oral rescue medication may be a potential confounder of the pain VAS evaluation, three approaches were used when analyzing pain VAS scores to account for the influence of pain meds (assuming 4 hours of rescue medication effect): (1) any recorded VAS score within 4 hours after use of rescue medication was considered missing; (2) all the recorded VAS scores was used; and (3) any recorded VAS scores within 4 hours after rescue medication use was imputed by the record taken prior to the rescue medication.

Where [3] appears, read: 2.5% four times daily after PRK.
The mark [4] stands for this setting: 2.5% four times daily after PRK, VAS 0-100.
[5] abbreviates: 2.5% four times daily after PRK, VAS 0-100, ORM-adjusted, N = 30.

Where “and” joins values, the source holds several entries; their conditions need not be identical. Equal entries are not always repeated.

Turning to `CC(C)c1nc2cc(O)ccc2c(=O)n1-c1ccc(C#N)cc1` [Compound I, 4-(7-hydroxy-2-isopropyl-4-oxo-4H-quinazolin-3-yl)-benzonitrile], the “Epithelial defect area, Difference compound I-Vehicle, mean (SD)” value in series [1] (Day 1) was 2.98 (27.33) mm^2; in series [1] (Day 2), 11.23 mm^2 and 11.23 (32.30) mm^2; in series [1] (Day 3), 1.02 (8.78) mm^2; in series [1] (Day 4), 0.31 (2.11) mm^2; in series [1] (Day 8), 0.00 (0.00) mm^2. For the same molecule, the “Epithelial defect size, Area, Raw mean (SD)” value in series [1] (Day 1) is on record as 220.15 (32.26) mm^2; in series [1] (Day 2) it was 83.02 (32.08) mm^2; in series [1] (Day 3) it was 6.75 (12.66) mm^2; in series [1] (Day 4), 0.39 (2.04) mm^2; in series [1] (Day 8), 0.00 (0.00) mm^2. Moreover, the “Wound healing compared to Vehicle” value in series [1] (after PRK surgery) is “no delay in wound healing”. In addition, in series [2] (setting [3]), the “VAS 0-12 hours post-operatively: % Diff compound I vs. Vehicle” value is reported as −22%. For the same molecule, the “VAS at 6 hours post-operatively: % Diff compound I vs. Vehicle” value in series [2] (setting [3]) is −25%. In addition, the “VAS 0-12 hours post-operatively: Diff (compound I-Vehicle) of model based means” value in series [2] (setting [4]) is given as −8.56. Moreover, the “VAS at 6 hours post-operatively: Diff (compound I-Vehicle) of model based means” value in series [2] (setting [4]) is listed as −11.1. Moreover, the “Model estimated mean VAS pain severity score 0-12 hours post-operatively” value in series [2] (setting [5]) is on record as 30.90. Moreover, the “Model estimated mean VAS pain severity score at 6-hours post-operatively” value in series [2] (setting [5]) is on record as 34.63. Also, the “Mean change in VAS score one-half hour after instillation of eye drop” value in series [2] (6.5 hours vs 6 hours post-operative) is on record as −3.1; in series [2] (18.5 hours vs 18 hours post-operative), 2.8; in series [2] (24.5 hours vs 24 hours post-operative), 1.3. Also, in series [2] (all scheduled time points), the “VAS pain severity scores vs Vehicle up to 36 hours after surgery” value is “lower for compound I than Vehicle at all scheduled time points up to and including 36 hours after surgery”. Moreover, the “Difference between compound I and Vehicle VAS scores from 36 to 72 hours after PRK surgery” value in series [2] (no statistically significant difference at p 0.10) was “only marginally different”. Also, the “VAS pain severity scores vs Vehicle during the first 18 hours after surgery” value in series [2] (p-value threshold 0.10, 6 out of the 7 time points, starting with hour 1) is “statistically significantly lower VAS pain severity scores”.

(Values after patent US11234982B2, “Methods for treating ocular surface pain” (NOVARTIS AG, priority 2019, dated 2022).)
